{"source": "patent US20240424083A1", "about": "(priority 2023, published 2024)", "assay_type_in_all_cases": "cell-based, mouse", "key": {"BMDMs [1]": {"system": "BMDMs", "details": "N15m1-infected BMDMs, 24 hpi; zVAD 20 μM, Nec-1 25 μM, VX-765 20 μM", "protocol": "Cell death assays. Cell viability and Caspase 3/7 activity were measured using CellTiter Glo (G7571, Promega) or CaspaseGlo 3/7 (G8091, Promega) respectively, according to the manufacturer's protocol, with modification.\nCell death assays. Cell viability and Caspase 3/7 activity were measured using CellTiter Glo (G7571, Promega) or CaspaseGlo 3/7 (G8091, Promega) respectively, according to the manufacturer's protocol, with modification. Briefly, 3.0×10^5 BMDMs/well wereplated in 24-well plates and infected at an MOI of 0.1 for 1 h in serum-free media. Media was replaced with complete media, or for addition of chemical inhibitors, viral inoculum was replaced with completed BMM media containing indicated concentration of inhibitors. Infected BMDMs were incubated for 24 h at 37° C./5% CO2. BMDMs were washed twice with 1×PBS and lysed with 100 μL Glo reagent/medium mixture (1:1). 50 μL of cell lysate was used for measuring the luminescence signal. Standard deviation and unpaired t test were performed on technical triplicates and data are representative of three independent experiments."}, "BMDMs [2]": {"system": "BMDMs"}, "2′5′-OAS/RNaseL system": {"system": "2′5′-OAS/RNaseL system", "details": "N15m1-infected BMDMs, 18 hpi; zVAD 20 μM, C16 1 μM", "protocol": "Bioanalyzer RNA analysis. Equal amounts of total RNA purified from BMDMs were analyzed on an Agilent 2100 Bioanalyzer using RNA Nano LabChips."}}, "note": "Peptide text beside a SMILES is read from it. * marks the point of attachment. Cbz = O=C(OCc1ccccc1)*; CH2F = FC*", "data": [{"smiles": "COC(=O)C[C@H](NC(=O)[C@H](C)NC(=O)[C@@H](NC(=O)OCc1ccccc1)C(C)C)C(=O)CF", "note": "[zVAD] (Cbz-Val-Ala-Asp(OMe)-CH2F)", "values": [{"measurement": "effect of inhibitor on virus-induced cell death", "setting": "BMDMs [1]", "result": "prevented virus-induced cell death"}, {"measurement": "effect of inhibitor on caspase 3/7 activity in N15m1-infected BMDMs", "setting": "BMDMs [2]", "result": "inhibited"}, {"measurement": "effect of inhibitor on degradation of host rRNA", "setting": "2′5′-OAS/RNaseL system", "result": "not inhibited"}]}]}
